Peptide text beside a SMILES is read from it.

One data set has as its system PBMCs. Put plainly: IL-2 induced proliferation of PBMCs, 3H-thymidine incorporation (human ex vivo model). To be noted: for inhibition of IL-2 induced proliferation: PBMCs from healthy control samples, 7 days, 3H-thymidine; for neutralization of the inhibitory effect of P3028 on IL-2 induced proliferation: fragments alone or in combination. Type of data set: cell-based. On the procedure: 100 μl of RPMI1640 supplemented with 200 IU/ml penicillin, […] streptomycin, 4 mM L-glutamine (all from Sigma® Chemical Co. MO, US) and 20% heat-inactivated human serum (autologous or from cancer patients) were added to uncoated, HSA or HSA/IgG coated tissue culture microtiter plates. PBMC, isolated from healthy individuals or patients with metastatic renal cell carcinoma, were diluted in RPMI/2% HSA at a concentration of 5×10^5/ml and 100 μl were added to the microtiter wells. Interleukin-2 (IL-2, Proleukin®, Chiron®, NL), at a final concentration of 120 IU/well, was added to some wells. Cells were cultured for 7 days in a humidified, 5% CO2-atmosphere at 37° C. Proliferation was assayed by incorporation of 1.6 μCi/well of [^3H]-thymidine (Amersham® Int., UK) during the last 18 hrs. Mean values of dpm (disintegrations per minute) of triplicates were used for the calculations.
Cultures for IL-2 induced proliferation was set up with PBMC from healthy donors and autologous serum as described above with the exception that PBMC were first pre-incubated for 30 min at room temperature with the indicated albumin peptides at a concentration of 10 μg/ml.
Round-bottomed, 96-well tissue culture plates (Costar®, Corning® Inc. NY, US) were pre-coated with HSA only or HSA and pooled human IgG for intravenous injection (Gammagard®, Baxter AS, DK) as follows; HSA was diluted in RPMI1640 without supplements to a concentration of 10 mg/ml. A mixture of 1 mg/ml IgG in a solution of 9 mg/ml HSA in RPMI (HSA/IgG) was also prepared. 200 μl of HSA or HSA/IgG were then added to each well of the plate. The plates were incubated at 4° C. for 30 minutes after which the wells were washed twice with 200 μl of RPMI1640. The coated plates were used immediately. 100 μl of RPMI1640 supplemented with 200 IU/ml penicillin, […] streptomycin, 4 mM L-glutamine (all from Sigma® Chemical Co. MO, US) and 20% heat-inactivated human serum (autologous) were added to the HSA or HSA/IgG coated tissue culture microtiter wells. PBMC, isolated from healthy individuals, were diluted in RPMI/2% HSA and peptides were added directly to the cell suspension at a concentration of 10 μg/ml. One hundred μl of this cell suspension (5×10^4 lymphocytes) was then added per well providing a final concentration of 5 μg/ml peptide per well. IL-2 (Proleukin®, Chiron®, NL), at a final concentration of 120 IU/well, was added to the wells. Cells were cultured for 7 days in a humidified, 5% CO2-atmosphere at 37° C. Proliferation was assayed by incorporation of 1.6 μCi/well of [^3H]-thymidine (Amersham® Int., UK) during the last 18 hrs. Mean values of dpm (disintegrations per minute) of triplicates were used for the calculations.
The model included PBMCs isolated from venous blood samples from healthy blood donors (control samples) or cancer patients. One hundred pI of culture medium (RPMI 1640 Dutch's modification (Gibco®, InVitrogenAB®, Stockholm, Sweden) supplemented with 200 IV/ml penicillin, 200 ug/ml streptomycin, 4 mM L-glutamine (all from Sigma® Chemical Co. MO, US) and 20% heat-inactivated human serum) were added to roundbottomed, 96-well tissue culture plates (Costar®, Corning® Inc. NY, US). […] Control sample wells without IL-2 was set up in parallel. […]
The effect of different peptides on IL-2 induced proliferation was analyzed in the human ex vivo model, using PBMCs from healthy control samples. […] Proliferation was measured as incorporation of ^3H-thymidine during the final 18 hours. […]
(In general: Uptake of a labelled nucleoside into DNA is a usual measure of proliferation.)

For a further data set, the system named is P3028, dHSA, HSA. Put plainly: ELISA and competition ELISA with rabbit anti-3028 antiserum. Type of data set: binding, human. To be noted: competition ELISA, serum L. On the procedure: Duplicate wells in Hi-binding microtitre plates (Costar® 2592, Corning® Inc, NY, USA) were coated with 100 μl of P3028 (10 ug/ml), denatured HSA (denHSA, 4.5 ug/ml) or control HSA sample (4.5 ug/ml). All coating reagent were diluted in PBS and incubated at room temperature overnight. The wells where then washed with wash buffer consisting of 0.05% Tween-20 in PBS (Sigma®) followed by blocking for 1 hr at 25° C. with 200 μl 0.5% gelatin prepared from bovine skin (Sigma®) in PBS followed by washing in wash buffer. […] Biotinylated horse anti-rabbit/mouse IgG (Vectastain® ELITE, Vector® Laboratories Inc, CA, USA) diluted 1/5 in ELISA reagent diluent was then added and the plates incubated for 1 h at 25° C. followed by washing. Next, HRP-conjugated streptavidin (R&D Systems® Europe, Ltd, UK) was added. Finally, after washing in wash buffer, substrate solution consisting of H2O2 and tetramethylbenzidine (R&D Systems®) was added. The reaction was stopped with 1M H2504 and the optical density measured as absorbance (A) at dual wavelengths, 450 nm and 570 nm, with a Multiscan® EX microplate reader (Labsystems).
Two antisera, R and L, from two different rabbits were tested for their ability to bind human serum and denatured Human Serum Albumin (dHSA). […] No substantial binding was detected for wells with no coat 202. […]
(In general: An ELISA detects its analyte on a solid surface through an enzyme-linked reagent.)

In another data set the target is P3028 (Homo sapiens, UniProt P02768). As to the kind of experiment: Binding of His-tag labeled P3028 to looped (cyclic) peptides on chips, ELISA. To be noted: positional scan of looped 6-meres. As to the method:
In order to identify cyclic peptides that bind to P3028, all possible variants of di- and tripeptides were synthesized on chips and the binding of the His-tag labeled P 3028 was analyzed using the ELISA-technique. Based on the identified binding motifs, looped 6-meres were produced and tested. […] Positional scans were performed in each position of the lead cyclic peptide was replaced with each of the other 19 L-amino acids. Binding of each of the substituted peptides was tested, and peptide sequences with even better binding capacity than that of the lead peptide were identified.

A further data set has as its system K562 target cells. Put plainly: NK-cell cytotoxicity (NKTEST, flow cytometry). To be noted: 10 ug/ml peptide, effector:target 40:1, four donors. Format: cell-based, human. As to the method:
The NK-cell cytotoxic activity of blood mononuclear cells from four healthy donors was tested. Mononuclear cells were separated by standard Ficoll-Paque® Plus (Pharmacia AB, Sweden) density gradient centrifugation from heparinized blood obtained from healthy donors. NK cell cytotoxic activity of the mononuclear cells was then tested using a commercial kit (NKTEST, Orpegen Pharma GmblI, Heidelberg, Germany) following the manufacturers protocol. Briefly, the kit contains cryopreserved, NK-sensitive target cells (K562) labeled with a lipophilic green fluorescent membrane dye, which enables discrimination of effector and target cells. After incubation with effector cells, killed target cells are identified by a DNA-stain, which penetrates and specifically stain the nuclei of dead target cells. This way the percentage of killed targets can be determined by flow cytometry. The mononuclear cells were preincubated for 30 min at 37° C. with the indicated peptides (peptides have been described previously) at 10 ug/ml. Target cells were then added, giving an effector:target ratio of 40:1, and the cell mixture incubated at 37° C. for 3-4 hours. Samples were analysed on a FACSCalibur (BD® Biosciences, San Jose, Calif.).

A further data set can be described thus: Solubility. Type of data set: physicochemical.

For the molecule “EPQNLIK (listed as Homo sapiens) [P3218]”, in the data set on PBMCs, the “inhibition of IL-2 induced proliferation” value is recorded as “much weaker” and the “neutralization of the inhibitory effect of P3028 on IL-2 induced proliferation” value is listed as “do not inhibit”. Besides, the “binding of rabbit anti-P3028 serum antibodies to P3028 fragments” value in the data set with P3028, dHSA, HSA is given as “not”.

As for CLRLIVMCG [SEQ ID NO: 266], the “binding of cyclic peptides to P3028” value with P3028 is “highest affinity”. Turning to `CC(C)C[C@H](NC(=O)[C@H](C)NC(=O)[C@H](CC(N)=O)NC(=O)[C@H](CCC(N)=O)NC(=O)[C@H](Cc1ccccc1)NC(=O)[C@H](CCCCN)NC(=O)[C@H](Cc1ccc(O)cc1)NC(=O)[C@H](CCC(=O)O)NC(=O)CNC(=O)[C@H](CC(C)C)NC(=O)[C@H](CCC(N)=O)NC(=O)[C@H](CCC(=O)O)NC(=O)[C@H](Cc1ccccc1)NC(=O)[C@H](CC(C)C)NC(=O)[C@@H](N)CCC(=O)O)C(=O)N[C@@H](CC(C)C)C(=O)N[C@H](C(=O)N[C@@H](CCCNC(=N)N)C(=O)O)C(C)C` [P3027] (H-ELFEQLGEYKFQNALLVR-OH; N-terminus and C-terminus assumed), in the data set with K562 target cells, the “effect on NK-cell cytotoxicity (percent specific lysis of K562)” value is on record as “Inhibition was not seen”. For `CC(C)C[C@H](NC(=O)[C@H](CO)NC(=O)[C@H](CC(C)C)NC(=O)[C@H](Cc1ccc(O)cc1)NC(=O)[C@@H](NC(=O)[C@H](Cc1ccccc1)NC(=O)[C@H](Cc1ccccc1)NC(=O)[C@@H](NC(=O)[C@H](CC(=O)O)NC(=O)[C@H](CC(C)C)NC(=O)[C@H](CCCCN)NC(=O)[C@@H](N)CCCCN)[C@@H](C)O)C(C)C)C(=O)N[C@@H](Cc1ccccc1)C(=O)N[C@H](C(=O)N[C@@H](CCC(=O)O)C(=O)N[C@@H](CCCNC(=N)N)C(=O)O)[C@@H](C)O` [SEQ ID NO: 552] (H-KKLDTFFVYLSLFTER-OH; N-terminus and C-terminus assumed), the solubility result in the data set “Solubility” is “soluble in aqueous solution”. For “VFDEFKPLVE (listed as Homo sapiens) [P3325]”, in the data set on PBMCs, the “inhibition of IL-2 induced proliferation” value was “much weaker” and the “neutralization of the inhibitory effect of P3028 on IL-2 induced proliferation” value is recorded as “do not inhibit”. Further, the “binding of rabbit anti-P3028 serum antibodies to P3028 fragments” value in the data set with P3028, dHSA, HSA was “bound preferentially”. With CLRLNVFCG [SEQ ID NO: 265], the “binding of cyclic peptides to P3028” value with P3028 is given as “highest affinity”.

(Values after US10881709B2, “Immune system modulators and compositions” (Canimguide Therapeutics AB, priority 2015, dated 2021).)
